One experiment deals with Elastase (Pseudomonas aeruginosa (strain ATCC 15692 / PAO1 / 1C / PRS 101 / LMG12228), UniProt P14756). Briefly: Inhibition of Pseudomonas aeruginosa LasB by fluorimetric assay in buffer of pH 7.2.
Sequence of Elastase (P14756 whole entry): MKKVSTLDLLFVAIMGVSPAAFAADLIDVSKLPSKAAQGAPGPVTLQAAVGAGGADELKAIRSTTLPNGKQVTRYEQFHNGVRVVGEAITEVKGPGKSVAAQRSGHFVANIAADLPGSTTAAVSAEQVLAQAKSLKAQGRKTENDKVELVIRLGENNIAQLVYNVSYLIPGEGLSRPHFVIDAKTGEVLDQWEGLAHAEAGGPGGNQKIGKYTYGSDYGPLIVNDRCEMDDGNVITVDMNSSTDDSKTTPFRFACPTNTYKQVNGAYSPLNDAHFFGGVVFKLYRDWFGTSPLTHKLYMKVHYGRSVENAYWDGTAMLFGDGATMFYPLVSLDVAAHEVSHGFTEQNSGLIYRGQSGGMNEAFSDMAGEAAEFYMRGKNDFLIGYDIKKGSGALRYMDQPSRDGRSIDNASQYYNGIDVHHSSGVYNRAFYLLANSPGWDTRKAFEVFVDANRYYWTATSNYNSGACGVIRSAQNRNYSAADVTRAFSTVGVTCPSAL
Conditions: not given; call rule not given here
With `CC(C)C[C@H](NC(=O)[C@H](CCC(=O)O)NC(=O)CS)C(N)=O`, the Ki result is recorded as “Not Active”.
The same measure, in the same setting: the same measure for `NCCCC[C@H](NC(=O)[C@H](CO)NC(=O)CS)C(N)=O`: “Not Active”; for `CC[C@@H](C)[C@H](NC(=O)CS)C(=O)N[C@@H](Cc1ccccc1)C(N)=O`: “Not Active”; for `CC(C)[C@H](NC(=O)CS)C(=O)N[C@@H](CC(=O)O)C(N)=O`: “Not Active”.
Still for that read-out and setting: the value for `NC(=O)[C@H](CC(=O)O)NC(=O)[C@H](CS)NC(=O)CS` was “Not Active”; that for `CC[C@@H](C)[C@H](NC(=O)CS)C(=O)N[C@@H](CCCNC(=N)N)C(N)=O` was “Not Active”.
Same read-out and setting: the value for `C[C@@H](O)[C@H](NC(=O)CS)C(=O)N[C@@H](CCCCN)C(N)=O` was “Not Active”; that for `CC(C)C[C@H](NC(=O)[C@H](CCCNC(=N)N)NC(=O)CS)C(N)=O` was “Not Active”.
In the case of `NC(=O)CC[C@H](NC(=O)CS)C(=O)N[C@@H](CC(=O)O)C(N)=O`, the Ki entry is recorded as “Not Active”.
Same read-out and setting: the value for `NC(=O)C[C@H](NC(=O)CS)C(=O)N[C@@H](CC(=O)O)C(N)=O` was “Not Active”; that for `CC(C)[C@H](NC(=O)CS)C(=O)N[C@@H](Cc1c[nH]c2ccccc12)C(N)=O` was “Not Active”; that for `CSCC[C@H](NC(=O)CS)C(=O)N[C@@H](CC(C)C)C(N)=O` was “Not Active”.
Same read-out and setting: the value for `C[C@H](NC(=O)CS)C(=O)N[C@@H](Cc1ccccc1)C(N)=O` was “Not Active”; that for `N=C(N)NCCC[C@H](NC(=O)[C@H](Cc1c[nH]cn1)NC(=O)CS)C(N)=O` was “Not Active”.
On the same count and under the same terms, the value for `NC(=O)[C@H](CC(=O)O)NC(=O)[C@H](CCC(=O)O)NC(=O)CS` was “Not Active”; that for `N=C(N)NCCC[C@H](NC(=O)[C@H](CCC(=O)O)NC(=O)CS)C(N)=O` was “Not Active”; that for `NC(=O)[C@H](CC(=O)O)NC(=O)[C@@H]1CCCN1C(=O)CS` was “Not Active”.
Regarding `NC(=O)[C@H](Cc1c[nH]c2ccccc12)NC(=O)[C@H](CO)NC(=O)CS`, the Ki result is “Not Active”.
With `NC(=O)[C@H](CC(=O)O)NC(=O)CNC(=O)CS`, the inhibition constant (Ki) entry was “Not Active”.

Still in this experiment, the particulars now being: read-out: Ki.
On to `NC(=O)[C@H](Cc1c[nH]c2ccccc12)NC(=O)[C@H](Cc1ccc(O)cc1)NC(=O)CS`, for which the Ki amounted to 14 µM.
Take `NCCCC[C@H](NC(=O)[C@H](Cc1ccc(O)cc1)NC(=O)CS)C(N)=O`: the Ki amounted to 8.5 µM.
For `CC(C)C[C@H](NC(=O)[C@H](C)NC(=O)CS)C(N)=O`, the Ki was found to be 21 µM.
Still for that read-out and setting: the same measure for `C[C@H](NC(=O)CS)C(=O)N[C@@H](CC(=O)O)C(N)=O`: 316 µM.
Same read-out and setting: the same measure for `CC(C)[C@H](NC(=O)[C@H](Cc1ccc(O)cc1)NC(=O)CS)C(N)=O`: 0.77 µM.
The same measure, in the same setting: the same measure for `CSCC[C@H](NC(=O)CS)C(=O)N[C@H](C(N)=O)C(C)C`: 98 µM.
Regarding `CSCC[C@H](NC(=O)CS)C(=O)N[C@@H](CC(=O)O)C(N)=O`, the Ki was 7 µM.
Still for that read-out and setting: the value for `CC(C)C[C@H](NC(=O)[C@H](Cc1ccccc1)NC(=O)CS)C(N)=O` was 645 µM; that for `N=C(N)NCCC[C@H](NC(=O)CS)C(=O)N[C@@H](CCCCN)C(N)=O` was 135 µM; that for `NCCCC[C@H](NC(=O)[C@H](CC(=O)O)NC(=O)CS)C(N)=O` was 491 µM.
Still for that read-out and setting: the value for `NC(=O)[C@H](CC(=O)O)NC(=O)[C@H](CCCN=C(N)N)NC(=O)CS` was 650 µM; that for `CC(C)[C@H](NC(=O)CS)C(=O)N[C@@H](CCCN=C(N)N)C(N)=O` was 69 µM.
The same measure, in the same setting: the value for `CC(C)C[C@H](NC(=O)CS)C(=O)N[C@@H](CCCCN)C(N)=O` was 14 µM; that for `CC[C@@H](C)[C@H](NC(=O)CS)C(=O)N[C@@H](CC(=O)O)C(N)=O` was 142 µM; that for `CC(C)[C@H](NC(=O)[C@H](Cc1c[nH]cn1)NC(=O)CS)C(N)=O` was 47 µM.
Regarding `CC[C@@H](C)[C@H](NC(=O)CS)C(=O)N[C@H](C(N)=O)C(C)C`, the inhibitory constant (Ki) amounted to 1.8 µM.
For `NCCCC[C@H](NC(=O)[C@H](CCCCN)NC(=O)CS)C(N)=O`, the inhibition constant Ki is 433 µM.
The same measure, in the same setting: the value for `NCCCC[C@H](NC(=O)CNC(=O)CS)C(N)=O` was 451 µM; that for `CC(C)[C@H](NC(=O)[C@H](CS)NC(=O)CS)C(N)=O` was 161 µM; that for `NC(=O)[C@H](Cc1ccccc1)NC(=O)[C@H](CCCN=C(N)N)NC(=O)CS` was 224 µM.
The same measure, in the same setting: the value for `CC(C)[C@H](NC(=O)CNC(=O)CS)C(N)=O` was 457 µM; that for `CC(C)C[C@H](NC(=O)[C@H](CC(N)=O)NC(=O)CS)C(N)=O` was 508 µM.
Consider `CC(C)C[C@H](NC(=O)[C@H](Cc1c[nH]c2ccccc12)NC(=O)CS)C(N)=O`, for which the inhibition constant (Ki) turned out to be 3.7 µM.
On the same count and under the same terms, the same measure for `C[C@@H](O)[C@H](NC(=O)CS)C(=O)N[C@@H](Cc1c[nH]c2ccccc12)C(N)=O`: 65 µM; for `CC(C)C[C@H](NC(=O)[C@H](CCCCN)NC(=O)CS)C(N)=O`: 123 µM; for `CC(C)C[C@H](NC(=O)[C@H](Cc1ccc(O)cc1)NC(=O)CS)C(N)=O`: 33 µM.
Same read-out and setting: the same measure for `NC(=O)[C@H](Cc1c[nH]c2ccccc12)NC(=O)[C@@H]1CCCN1C(=O)CS`: 562 µM.
On to `CC(C)C[C@H](NC(=O)CS)C(=O)N[C@@H](Cc1ccccc1)C(N)=O`, for which the Ki was found to be 113 µM.
The same measure, in the same setting: the value for `N=C(N)NCCC[C@H](NC(=O)[C@@H]1CCCN1C(=O)CS)C(N)=O` was 56 µM; that for `NC(=O)[C@H](CCCN=C(N)N)NC(=O)[C@H](Cc1c[nH]c2ccccc12)NC(=O)CS` was 25 µM.
The same measure, in the same setting: the value for `NC(=O)[C@H](CCCN=C(N)N)NC(=O)CNC(=O)CS` was 641 µM; that for `CC(C)C[C@H](NC(=O)CS)C(=O)N[C@@H](Cc1c[nH]c2ccccc12)C(N)=O` was 300 µM; that for `CSCC[C@H](NC(=O)CS)C(=O)N[C@@H](CCCNC(=N)N)C(N)=O` was 6.6 µM.
The same measure, in the same setting: the same measure for `CSCC[C@H](NC(=O)CS)C(=O)N[C@@H](Cc1ccccc1)C(N)=O`: 867 µM; for `NC(=O)[C@H](Cc1ccccc1)NC(=O)[C@H](CCC(=O)O)NC(=O)CS`: 146 µM; for `NCCCC[C@H](NC(=O)CS)C(=O)N[C@@H](Cc1ccccc1)C(N)=O`: 126 µM.
Turning to `C[C@@H](O)[C@H](NC(=O)CS)C(=O)N[C@@H](CCCN=C(N)N)C(N)=O`, the inhibitory constant (Ki) was 616 µM.
As to `CSCC[C@H](NC(=O)CS)C(=O)N[C@@H](CCCCN)C(N)=O`, the Ki was determined as 3.9 µM.
Consider `NCCCC[C@H](NC(=O)[C@H](CCC(N)=O)NC(=O)CS)C(N)=O`, for which the Ki was 380 µM.
Same read-out and setting: the value for `NCCCC[C@H](NC(=O)[C@H](CCC(=O)O)NC(=O)CS)C(N)=O` was 553 µM; that for `NC(=O)[C@H](Cc1c[nH]c2ccccc12)NC(=O)[C@H](CCCN=C(N)N)NC(=O)CS` was 125 µM.
For `C[C@H](NC(=O)CS)C(=O)N[C@@H](CCCCN)C(N)=O`, the inhibitory constant (Ki) came to 153 µM.
On the same count and under the same terms, the value for `NC(=O)[C@H](CCCN=C(N)N)NC(=O)[C@H](Cc1ccc(O)cc1)NC(=O)CS` was 3 µM.
Still for that read-out and setting: the value for `NC(=O)[C@H](Cc1ccccc1)NC(=O)[C@H](CO)NC(=O)CS` was 75 µM; that for `NC(=O)[C@H](Cc1ccccc1)NC(=O)[C@H](Cc1ccccc1)NC(=O)CS` was 146 µM; that for `CC(C)[C@H](NC(=O)[C@@H](NC(=O)CS)C(C)C)C(N)=O` was 10 µM.

A word on the Ki: it is a dissociation constant, usually derived from enzyme kinetics or from competition with a known ligand.

The values are drawn from ChEMBL document CHEMBL1154297, “Inhibitor profiling of the Pseudomonas aeruginosa virulence factor LasB using N-alpha mercaptoamide template-based inhibitors” (Bioorg Med Chem Lett, 2009).
